Results published in US8992674B2, “Ink, ink cartridge and ink jet recording method” (Canon Kabushiki Kaisha, priority 2012, dated 2015).

Assay: Measurement of Δλmax (UV-Vis absorption spectra in 20.0% 1,2-hexanediol aqueous solution and in water)
Type: physicochemical
Settings: for λmaxD: maximum absorption wavelength in 20.0% by mass aqueous solution of 1,2-hexanediol; for λmaxD / λmaxW: coloring material 0.002 to 0.005%; for λmaxW: maximum absorption wavelength in ion-exchange water; for Δλmax: λmaxD−λmaxW
Excerpt: Specifically, the ink according to the present invention contains a first coloring material and a second coloring material satisfying the following conditions. […] Further, the sum of the Δλmax1 and the Δλmax2 needs to be 35.0 or less. λmax refers to a maximum absorption wavelength in the visible region (380 to 750 nm) in a UV-Vis absorption spectrum of a coloring material, and can be measured using a spectrophotometer.
In a coloring material in which an associating state and a non-associating state are concurrently present, the absorption spectrum has a plurality of maximal-absorption wavelengths in some cases. Then, respective peak shapes (heights) at the maximal-absorption wavelengths representing the associating state and the non-associating state vary depending on a liquid medium to be used in some cases. The maximum absorption wavelength in the present invention means the following. That is, even in the case where a maximum absorption wavelength in an absorption spectrum in 20.0% by mass aqueous solution of 1,2-hexanediol shifts based on an absorption spectrum in water, a peak originated from a maximum absorption wavelength in water is taken as the maximum absorption wavelength. […] In the present invention, since it is important to consider the shift of a wavelength giving a highest absorbance, a maximum absorption wavelength in 20.0% by mass aqueous solution of 1,2-hexanediol is considered to be a maximal-absorption wavelength on a larger wavelength side, which is a peak originated from a maximum absorption wavelength in water.
For each coloring material, the difference Δλmax (=λmaxD−λmaxW) between a maximum absorption wavelength (λmaxD) in a 20.0% by mass aqueous solution of 1,2-hexanediol and a maximum absorption wavelength (λmaxW) in water in UV-Vis absorption spectra was measured. λmaxD and λmaxW were measured by diluting each coloring material by using a 20.0% by mass aqueous solution of 1,2-hexanediol or ion-exchange water so that the content of the coloring material became 0.002 to 0.005%. The measurement condition is shown below. Then, the value Δλmax=λmaxD−λmaxW was determined from the measurement. Here, the unit of λmax is “nm.”
Spectrophotometer: a self-recording spectrophotometer (trade name “U-3300,” made by Hitachi, Ltd.)
Measurement cell: 1-cm quartz cell
Sampling interval: 0.1 nm
Scanning speed: 30 nm/min

Compound	λmaxD [nm]	λmaxW [nm]	Δλmax [nm]
Cc1cc(Nc2nc(NCCS(=O)(=O)O)nc(Nc3ccc(N=Nc4ccc(N=Nc5ccc(S(=O)(=O)O)cc5)cc4S(=O)(=O)O)c(C)c3)n2)ccc1N=Nc1ccc(N=Nc2ccc(S(=O)(=O)O)cc2)cc1S(=O)(=O)O [yellow coloring material 3]	408.0	417.0	−9.0
Cc1c(C#N)c(Nc2ccc(S(=O)(=O)O)cc2)nc(Nc2ccc(S(=O)(=O)O)cc2)c1N=Nc1nc(-c2ccc3ccccc3c2)c(N=Nc2cc(S(=O)(=O)O)c3cc(S(=O)(=O)O)cc(S(=O)(=O)O)c3c2)s1 [black coloring material 4]	604.0	604.0	0.0
COc1cc(N=Nc2cccc(S(=O)(=O)O)c2)ccc1NC(=O)Nc1ccc(N=Nc2cccc(S(=O)(=O)O)c2)cc1OC [C.I. Direct Yellow 132]	411.0	405.5	5.5
Cn1c(=O)c(C(=O)c2cccc(S(=O)(=O)O)c2)c2c3c(c(Nc4cc(Nc5nc(NCCNc6nc(Nc7cc(Nc8ccc9c%10c8C(=O)c8ccccc8-c%10c(C(=O)c8cccc(S(=O)(=O)O)c8)c(=O)n9C)c(S(=O)(=O)O)cc7S(=O)(=O)O)nc(Oc7ccc(S(=O)(=O)O)cc7)n6)nc(Oc6ccc(S(=O)(=O)O)cc6)n5)c(S(=O)(=O)O)cc4S(=O)(=O)O)ccc31)C(=O)c1ccccc1-2 [magenta coloring material 2]	512.0	508.5	3.5
CC(C)(C)c1nn(-c2cc(C(=O)O)cc(C(=O)O)c2)c(N)c1N=Nc1nnc(SCCSc2nnc(N=Nc3c(C(C)(C)C)nn(-c4cc(C(=O)O)cc(C(=O)O)c4)c3N)s2)s1 [yellow coloring material 1]	451.5	427.5	24.0
COc1cc(N=Nc2cccc(S(=O)(=O)O)c2)ccc1Nc1nc(NCCS(=O)(=O)O)nc(Nc2ccc(N=Nc3cccc(S(=O)(=O)O)c3)cc2OCCCS(=O)(=O)O)n1 [yellow coloring material 4]	382.0	391.5	−9.5
Cc1c(C#N)c(Nc2ccc(S(=O)(=O)O)cc2)nc(Nc2ccc(S(=O)(=O)O)cc2)c1N=Nc1sc(N=Nc2ccccc2C#N)c(-c2ccc(Nc3nc(NCCS(=O)(=O)O)nc(Nc4cc(S(=O)(=O)O)ccc4S(=O)(=O)O)n3)cc2)c1C#N [black coloring material 1]	630.5	605.5	25.0
CCc1cc(C)c(S(=O)(=O)O)c(CC)c1Nc1nc(N(c2nc3ccc(S(=O)(=O)O)cc3s2)c2c(CC)cc(C)c(S(=O)(=O)O)c2CC)cc(C)c1N=Nc1c(C#N)c(C(C)(C)C)nn1-c1nc2ccc(S(=O)(=O)O)cc2s1 [magenta coloring material 1]	559.5	555.0	4.5
C.I. Direct Yellow 86	399.0	380.0	19.0
O=C(O)c1nn(-c2ccc(S(=O)(=O)O)cc2)c(O)c1N=Nc1ccc(S(=O)(=O)O)cc1 [C.I. Acid Yellow 23]	430.5	427.0	3.5
Cc1ccc(S(=O)(=O)Nc2cc(S(=O)(=O)[O-])cc3cc(S(=O)(=O)[O-])c(N=Nc4cc(Cl)ccc4Oc4ccccc4)c(O)c23)cc1.[Na+].[Na+] [C.I. Acid Red 249]	520.0	524.0	−4.0
Nc1cc2c(O)c(N=Nc3ccc(N=Nc4ccc(S(=O)(=O)[O-])cc4)c4ccc(S(=O)(=O)[O-])cc34)c(S(=O)(=O)[O-])cc2cc1S(=O)(=O)[O-].[Na+].[Na+].[Na+].[Na+] [C.I. Food Black 2]	595.0	585.5	9.5
